Source: ChEMBL document CHEMBL5303765, “Data for DCP probe BAY-7081” (2023)

How the values were obtained:
[1] = molecular target: Serine/threonine-protein kinase 24 (Homo sapiens) (UniProt Q9Y6E0); test: MST3 SGC Tm panel (DSF); conditions: for ΔTm: Compound concentration 10.0 uM
[2] = molecular target: T1, Alpha-2C adrenergic receptor (Homo sapiens) (UniProt P18825); conditions: Compound concentration 10.0 uM
T1 sequence (whole entry): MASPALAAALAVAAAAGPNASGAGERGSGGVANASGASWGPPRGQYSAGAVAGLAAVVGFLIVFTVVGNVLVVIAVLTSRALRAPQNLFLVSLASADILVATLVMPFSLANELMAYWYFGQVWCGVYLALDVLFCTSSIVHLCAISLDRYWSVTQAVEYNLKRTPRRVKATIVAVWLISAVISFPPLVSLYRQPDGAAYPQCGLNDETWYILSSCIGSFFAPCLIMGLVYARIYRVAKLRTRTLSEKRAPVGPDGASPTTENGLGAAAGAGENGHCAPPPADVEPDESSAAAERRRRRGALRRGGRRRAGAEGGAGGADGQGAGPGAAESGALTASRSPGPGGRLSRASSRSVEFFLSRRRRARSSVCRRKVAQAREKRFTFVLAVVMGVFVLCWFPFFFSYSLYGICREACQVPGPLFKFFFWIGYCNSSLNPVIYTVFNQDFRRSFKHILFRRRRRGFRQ

[3] = molecular target: Dual specificity protein kinase CLK1 (Homo sapiens) (UniProt P49759); test: CLK1 SGC Tm panel (DSF); conditions: for ΔTm: Compound concentration 10.0 uM
Sequence of Dual specificity protein kinase CLK1 (Homo sapiens) (P49759 whole entry, looked up): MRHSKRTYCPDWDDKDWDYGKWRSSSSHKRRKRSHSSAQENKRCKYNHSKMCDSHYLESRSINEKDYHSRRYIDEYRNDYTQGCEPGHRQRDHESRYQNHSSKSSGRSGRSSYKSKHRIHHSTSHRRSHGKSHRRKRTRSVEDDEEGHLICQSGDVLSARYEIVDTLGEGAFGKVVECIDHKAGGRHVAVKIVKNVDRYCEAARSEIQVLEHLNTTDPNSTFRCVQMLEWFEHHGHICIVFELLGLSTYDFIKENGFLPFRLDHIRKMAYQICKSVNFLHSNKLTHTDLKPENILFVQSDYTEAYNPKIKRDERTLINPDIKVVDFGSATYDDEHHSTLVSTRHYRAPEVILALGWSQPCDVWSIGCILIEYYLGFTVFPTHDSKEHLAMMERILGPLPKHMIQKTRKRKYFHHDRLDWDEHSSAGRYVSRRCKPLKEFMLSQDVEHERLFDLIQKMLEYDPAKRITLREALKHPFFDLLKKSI

[4] = molecular target: Transcription initiation factor TFIID subunit 1 (Homo sapiens) (UniProt P21675); test: TAF1 SGC Tm panel (DSF); conditions: for ΔTm: Compound concentration 10.0 uM
Sequence of Transcription initiation factor TFIID subunit 1 (Homo sapiens) (P21675 whole entry): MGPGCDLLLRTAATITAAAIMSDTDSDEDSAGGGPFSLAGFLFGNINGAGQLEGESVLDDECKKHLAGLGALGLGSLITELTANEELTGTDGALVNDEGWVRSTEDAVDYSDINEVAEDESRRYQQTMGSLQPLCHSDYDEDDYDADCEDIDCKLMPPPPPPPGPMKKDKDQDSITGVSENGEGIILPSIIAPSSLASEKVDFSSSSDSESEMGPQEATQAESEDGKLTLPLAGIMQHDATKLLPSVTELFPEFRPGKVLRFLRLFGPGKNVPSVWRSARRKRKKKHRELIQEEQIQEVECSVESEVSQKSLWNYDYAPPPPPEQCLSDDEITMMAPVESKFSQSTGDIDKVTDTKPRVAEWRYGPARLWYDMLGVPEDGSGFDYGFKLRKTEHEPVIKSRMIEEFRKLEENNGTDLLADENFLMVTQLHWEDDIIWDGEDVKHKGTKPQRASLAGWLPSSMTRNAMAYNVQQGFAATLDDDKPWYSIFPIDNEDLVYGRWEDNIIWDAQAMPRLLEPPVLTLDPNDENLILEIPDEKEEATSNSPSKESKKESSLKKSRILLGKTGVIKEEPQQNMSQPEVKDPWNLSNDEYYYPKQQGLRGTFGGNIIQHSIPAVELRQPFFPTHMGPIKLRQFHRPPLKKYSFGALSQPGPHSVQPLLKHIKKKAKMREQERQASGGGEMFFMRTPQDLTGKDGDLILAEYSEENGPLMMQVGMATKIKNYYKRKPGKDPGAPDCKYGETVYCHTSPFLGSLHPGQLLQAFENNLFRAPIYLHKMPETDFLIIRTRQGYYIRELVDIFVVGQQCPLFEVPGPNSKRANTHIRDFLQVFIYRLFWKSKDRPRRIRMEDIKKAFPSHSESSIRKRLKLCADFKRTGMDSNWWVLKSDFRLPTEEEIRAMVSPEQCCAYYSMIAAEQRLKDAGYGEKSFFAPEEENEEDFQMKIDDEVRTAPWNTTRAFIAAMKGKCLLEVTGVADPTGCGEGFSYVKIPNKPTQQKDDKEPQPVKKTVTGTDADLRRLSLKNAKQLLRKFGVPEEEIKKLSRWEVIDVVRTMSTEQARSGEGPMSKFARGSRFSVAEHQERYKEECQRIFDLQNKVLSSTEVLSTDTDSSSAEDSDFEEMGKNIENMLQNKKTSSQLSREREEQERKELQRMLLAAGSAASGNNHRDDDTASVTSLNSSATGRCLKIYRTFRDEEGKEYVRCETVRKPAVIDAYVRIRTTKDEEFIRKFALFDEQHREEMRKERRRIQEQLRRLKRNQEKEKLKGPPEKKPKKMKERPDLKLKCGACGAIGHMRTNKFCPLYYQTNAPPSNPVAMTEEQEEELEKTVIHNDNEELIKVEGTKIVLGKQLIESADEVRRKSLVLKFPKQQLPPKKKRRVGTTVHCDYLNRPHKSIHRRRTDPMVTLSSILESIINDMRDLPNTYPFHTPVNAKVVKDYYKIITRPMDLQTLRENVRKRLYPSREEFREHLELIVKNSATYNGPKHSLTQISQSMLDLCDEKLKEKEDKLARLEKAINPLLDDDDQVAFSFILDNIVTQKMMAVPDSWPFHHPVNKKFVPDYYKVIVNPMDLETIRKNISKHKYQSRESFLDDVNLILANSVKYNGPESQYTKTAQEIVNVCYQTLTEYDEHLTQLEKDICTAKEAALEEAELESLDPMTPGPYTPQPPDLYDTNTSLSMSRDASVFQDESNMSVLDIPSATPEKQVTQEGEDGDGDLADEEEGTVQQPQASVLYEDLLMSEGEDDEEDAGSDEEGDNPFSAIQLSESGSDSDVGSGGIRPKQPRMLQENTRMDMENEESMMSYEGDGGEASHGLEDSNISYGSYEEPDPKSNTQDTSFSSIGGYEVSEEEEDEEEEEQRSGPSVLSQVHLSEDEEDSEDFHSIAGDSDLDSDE

[5] = molecular target: T2, Muscarinic acetylcholine receptor M4 (Homo sapiens) (UniProt P08173); conditions: Compound concentration 10.0 uM
T2 sequence (whole entry): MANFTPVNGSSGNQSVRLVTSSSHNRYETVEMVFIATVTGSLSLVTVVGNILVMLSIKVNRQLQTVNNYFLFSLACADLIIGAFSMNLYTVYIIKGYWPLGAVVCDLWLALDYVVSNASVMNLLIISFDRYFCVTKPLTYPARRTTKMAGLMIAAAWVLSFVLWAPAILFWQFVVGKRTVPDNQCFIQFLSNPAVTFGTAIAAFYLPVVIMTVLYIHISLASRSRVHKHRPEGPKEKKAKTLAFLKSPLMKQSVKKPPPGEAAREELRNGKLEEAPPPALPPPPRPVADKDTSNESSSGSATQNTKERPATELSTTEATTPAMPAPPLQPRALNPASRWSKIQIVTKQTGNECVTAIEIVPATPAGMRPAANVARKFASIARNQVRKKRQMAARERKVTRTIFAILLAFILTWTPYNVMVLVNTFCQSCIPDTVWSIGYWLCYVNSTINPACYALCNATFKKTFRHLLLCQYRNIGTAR

[6] = molecular target: Histamine H2 receptor (Homo sapiens) (UniProt P25021); conditions: Compound concentration 10.0 uM
Sequence of Histamine H2 receptor (Homo sapiens) (P25021 whole entry): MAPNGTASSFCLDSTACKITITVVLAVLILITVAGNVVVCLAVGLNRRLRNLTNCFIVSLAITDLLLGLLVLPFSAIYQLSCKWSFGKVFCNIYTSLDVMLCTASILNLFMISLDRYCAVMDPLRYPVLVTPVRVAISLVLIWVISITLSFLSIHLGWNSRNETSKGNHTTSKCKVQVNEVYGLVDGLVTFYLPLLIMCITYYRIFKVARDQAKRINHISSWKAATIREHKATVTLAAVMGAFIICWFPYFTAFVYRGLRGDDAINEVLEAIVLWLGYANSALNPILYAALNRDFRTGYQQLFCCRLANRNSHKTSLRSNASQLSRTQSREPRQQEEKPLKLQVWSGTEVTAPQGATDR

[7] = molecular target: Vascular endothelial growth factor receptor 1 (Homo sapiens) (UniProt P17948); test: FLT1 SGC Tm panel (DSF); conditions: for ΔTm: Compound concentration 10.0 uM
[8] = molecular target: Serine/threonine-protein kinase pim-3 (Homo sapiens) (UniProt Q86V86); test: PIM3 SGC Tm panel (DSF); conditions: for ΔTm: Compound concentration 10.0 uM
[9] = molecular target: Serine/threonine-protein kinase PAK 4 (Homo sapiens) (UniProt O96013); test: PAK4 SGC Tm panel (DSF); conditions: for ΔTm: Compound concentration 10.0 uM
Sequence of Serine/threonine-protein kinase PAK 4 (Homo sapiens) (O96013 whole entry, looked up): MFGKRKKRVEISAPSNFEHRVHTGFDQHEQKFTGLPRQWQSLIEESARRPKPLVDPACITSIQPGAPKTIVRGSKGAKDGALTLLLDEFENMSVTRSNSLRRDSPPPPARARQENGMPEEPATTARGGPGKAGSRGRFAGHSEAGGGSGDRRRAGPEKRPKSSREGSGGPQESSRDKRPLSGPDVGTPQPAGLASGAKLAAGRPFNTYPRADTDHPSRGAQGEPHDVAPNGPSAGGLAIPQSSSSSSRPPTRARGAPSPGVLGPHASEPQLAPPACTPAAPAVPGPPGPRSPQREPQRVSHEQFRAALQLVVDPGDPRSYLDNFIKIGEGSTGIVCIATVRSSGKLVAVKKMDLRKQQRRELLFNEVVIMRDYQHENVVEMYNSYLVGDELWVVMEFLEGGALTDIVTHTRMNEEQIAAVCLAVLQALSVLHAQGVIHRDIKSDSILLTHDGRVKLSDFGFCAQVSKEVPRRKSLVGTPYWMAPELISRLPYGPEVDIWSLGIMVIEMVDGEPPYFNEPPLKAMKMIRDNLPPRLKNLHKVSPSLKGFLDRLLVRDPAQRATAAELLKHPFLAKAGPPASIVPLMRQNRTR

[10] = molecular target: Casein kinase II subunit alpha' (Homo sapiens) (UniProt P19784); test: CSNK2A2 SGC Tm panel (DSF); conditions: for ΔTm: Compound concentration 10.0 uM
Sequence of Casein kinase II subunit alpha' (Homo sapiens) (P19784 whole entry, looked up): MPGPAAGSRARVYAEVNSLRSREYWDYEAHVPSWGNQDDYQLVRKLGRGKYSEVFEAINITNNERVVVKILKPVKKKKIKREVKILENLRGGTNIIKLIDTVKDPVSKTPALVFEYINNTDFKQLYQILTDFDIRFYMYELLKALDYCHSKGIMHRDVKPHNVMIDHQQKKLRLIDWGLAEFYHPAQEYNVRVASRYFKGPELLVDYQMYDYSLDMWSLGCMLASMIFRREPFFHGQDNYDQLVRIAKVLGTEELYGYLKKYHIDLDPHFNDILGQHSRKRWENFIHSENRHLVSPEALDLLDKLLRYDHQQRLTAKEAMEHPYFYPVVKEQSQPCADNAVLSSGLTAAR

[11] = molecular target: Beta-3 adrenergic receptor (Homo sapiens) (UniProt P13945); conditions: Compound concentration 10.0 uM
Sequence of Beta-3 adrenergic receptor (Homo sapiens) (P13945 whole entry, looked up): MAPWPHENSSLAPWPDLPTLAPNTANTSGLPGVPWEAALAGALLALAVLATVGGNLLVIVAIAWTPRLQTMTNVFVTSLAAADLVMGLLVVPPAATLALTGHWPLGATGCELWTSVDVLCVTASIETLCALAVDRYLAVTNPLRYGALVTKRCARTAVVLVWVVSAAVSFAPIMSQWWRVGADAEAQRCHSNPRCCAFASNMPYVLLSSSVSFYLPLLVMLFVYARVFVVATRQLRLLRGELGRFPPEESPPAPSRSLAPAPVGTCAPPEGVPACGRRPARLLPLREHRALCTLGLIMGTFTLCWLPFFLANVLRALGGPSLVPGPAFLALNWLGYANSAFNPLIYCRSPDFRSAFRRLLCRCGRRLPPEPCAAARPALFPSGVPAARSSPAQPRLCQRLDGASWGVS

[12] = molecular target: T3, Serine/threonine-protein kinase Nek1 (Homo sapiens) (UniProt Q96PY6); test: NEK1 SGC Tm panel (DSF); conditions: for ΔTm: Compound concentration 10.0 uM
T3 sequence (whole entry): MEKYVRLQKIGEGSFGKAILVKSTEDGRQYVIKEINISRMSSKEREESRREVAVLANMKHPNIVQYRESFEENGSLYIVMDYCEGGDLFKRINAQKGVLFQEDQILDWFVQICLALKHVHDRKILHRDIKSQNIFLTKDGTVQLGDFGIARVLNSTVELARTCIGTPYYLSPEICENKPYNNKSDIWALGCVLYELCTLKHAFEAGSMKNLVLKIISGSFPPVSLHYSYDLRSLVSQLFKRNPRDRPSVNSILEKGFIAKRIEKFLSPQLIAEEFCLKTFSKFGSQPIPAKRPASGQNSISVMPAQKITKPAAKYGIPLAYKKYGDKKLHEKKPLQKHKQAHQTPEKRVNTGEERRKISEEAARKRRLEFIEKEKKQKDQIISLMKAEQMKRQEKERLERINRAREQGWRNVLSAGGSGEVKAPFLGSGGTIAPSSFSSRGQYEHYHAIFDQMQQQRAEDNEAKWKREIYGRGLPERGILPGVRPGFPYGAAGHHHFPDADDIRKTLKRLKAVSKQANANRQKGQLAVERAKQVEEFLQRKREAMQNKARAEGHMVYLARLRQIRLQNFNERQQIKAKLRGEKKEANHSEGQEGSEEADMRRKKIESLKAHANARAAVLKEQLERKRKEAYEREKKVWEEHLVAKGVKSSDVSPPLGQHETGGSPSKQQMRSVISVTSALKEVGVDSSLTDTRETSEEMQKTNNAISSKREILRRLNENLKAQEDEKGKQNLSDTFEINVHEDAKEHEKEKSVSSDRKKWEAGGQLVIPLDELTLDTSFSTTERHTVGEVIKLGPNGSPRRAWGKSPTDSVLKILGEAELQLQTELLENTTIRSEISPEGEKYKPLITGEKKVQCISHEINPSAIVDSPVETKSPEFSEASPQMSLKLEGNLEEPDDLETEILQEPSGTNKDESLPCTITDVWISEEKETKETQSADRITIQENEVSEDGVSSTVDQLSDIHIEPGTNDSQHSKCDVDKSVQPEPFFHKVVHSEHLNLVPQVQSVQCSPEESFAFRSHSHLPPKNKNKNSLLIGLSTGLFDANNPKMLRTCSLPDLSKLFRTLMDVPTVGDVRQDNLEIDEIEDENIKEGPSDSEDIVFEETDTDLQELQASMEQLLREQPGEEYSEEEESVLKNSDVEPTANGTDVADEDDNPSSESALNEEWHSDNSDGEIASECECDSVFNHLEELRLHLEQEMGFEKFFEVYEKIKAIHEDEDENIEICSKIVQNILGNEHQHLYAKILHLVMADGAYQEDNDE

Sequence of Serine/threonine-protein kinase 24 (Homo sapiens) (Q9Y6E0 whole entry, looked up): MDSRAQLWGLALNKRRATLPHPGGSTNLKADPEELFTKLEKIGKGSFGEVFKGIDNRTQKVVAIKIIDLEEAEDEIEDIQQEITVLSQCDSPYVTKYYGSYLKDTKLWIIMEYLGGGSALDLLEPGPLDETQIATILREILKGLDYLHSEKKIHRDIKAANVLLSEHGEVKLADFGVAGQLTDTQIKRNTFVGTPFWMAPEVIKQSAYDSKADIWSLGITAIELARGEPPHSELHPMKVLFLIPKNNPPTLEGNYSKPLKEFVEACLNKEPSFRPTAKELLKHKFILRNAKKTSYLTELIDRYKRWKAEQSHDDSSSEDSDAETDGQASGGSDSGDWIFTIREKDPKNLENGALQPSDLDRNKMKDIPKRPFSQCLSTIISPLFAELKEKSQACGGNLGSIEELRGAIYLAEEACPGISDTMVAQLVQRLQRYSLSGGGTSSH

Structure (SMILES)	delta Tm Staurosporine positive control [1]	ΔTm [1]	inhibition [2] [%]	delta Tm Staurosporine positive control [3]	ΔTm [3]	delta Tm Staurosporine positive control [4]	ΔTm [4]	inhibition [5] [%]	inhibition [6] [%]	delta Tm Staurosporine positive control [7]	ΔTm [7]	delta Tm Staurosporine positive control [8]	ΔTm [8]	delta Tm Staurosporine positive control [9]	ΔTm [9]	delta Tm Staurosporine positive control [10]	ΔTm [10]	inhibition [11] [%]	delta Tm Staurosporine positive control [12]	ΔTm [12]
CCC[C@H]1CNCc2c1[nH]c(=O)c(C#N)c2N1CCC2(CC1)CC2	7.85	-2.08	2.5	11.4	-0.548	0.516	1.56	-3.14	32.7	13.1	-0.145	16.7	-0.159	15.1	0.134	4.21	-0.244	3.76	2.43	0.404
CCC[C@@H]1CNCc2c1[nH]c(=O)c(C#N)c2N1CCC2(CC1)CC2	7.85	-2.14	-0.07	11.4	-0.372	0.516	0.967	-5.05	25.3	13.1	-0.163	16.7	-0.32	15.1	0.121	4.21	-0.242	-3.17	2.43	0.25
